Experiments:
Assay type in all cases: cell-based, human
[1] = test system: hEOs; assay: Scaled static culture of hEOs in Aggrewell 400 plates
Procedure: (§1) 24 well Aggrewell™ 400 plates (StemCell Technologies 34411) were pre-treated with 500 μl/well anti-adherence medium and centrifuged at 1300×g for 5 mins. After aspirating the medium, the wells were rinsed with 2 ml warm basal medium. Then, the medium was replaced by 1 ml warm organisation medium (OM). The plate was incubated at 37° C. at 5% CO2 until the cells were ready for seeding. OM comprised of Essential 6 (E6) medium (Life Technologies, A1516401) supplemented with 0.25 μM CH and ROCKi (10 μM). Pre-induced cells were dissociated using 0.25% Trypsin-EDTA, and 480,000 cells were seeded into each well of an Aggrewell™ 400 Plate at the rate of 400 cells/microwell and were centrifuged at 300×g for 3 mins. The final volume of medium in each well was 2 ml. Cells were cultured in Aggrewell plates at 37° C. at 5% CO2 for 4 days. The OM (without ROCKi) was replaced every day. On day 5, hEOs were manually picked and transferred to bottles for rotary culture in a bioreactor. From Day 5, hEOs were cultured in OM supplemented with 1 μM SB431542 at hypoxic conditions (5% O2, 5% CO2 and without ROCKi). The hEOs were collected at different time points for further analysis.

[2] = test system: hEOs; assay: Kinetic rotary culture of hEOs: growth and morphology
Procedure: as §1, with “analysis. Medium containing human cord serum (HCS) (also known as ex-utero culture medium, EUCM) was used as described earlier^64. […]” for “analysis.”

[3] = test system: hEOs; assay: Frequency of beating hEOs (periodic contractions)
Procedure: 24 well Aggrewell™ 400 plates (StemCell Technologies 34411) were pre-treated with 500 μl/well anti-adherence medium and centrifuged at 1300×g for 5 mins. After aspirating the medium, the wells were rinsed with 2 ml warm basal medium. Then, the medium was replaced by 1 ml warm organisation medium (OM). The plate was incubated at 37° C. at 5% CO2 until the cells were ready for seeding. OM comprised of Essential 6 (E6) medium (Life Technologies, A1516401) supplemented with 0.25 μM CH and ROCKi (10 μM). Pre-induced cells were dissociated using 0.25% Trypsin-EDTA, and 480,000 cells were seeded into each well of an Aggrewell™ 400 Plate at the rate of 400 cells/microwell and were centrifuged at 300×g for 3 mins. The final volume of medium in each well was 2 ml. Cells were cultured in Aggrewell plates at 37° C. at 5% CO2 for 4 days. The OM (without ROCKi) was replaced every day. On day 5, hEOs were manually picked and transferred to bottles for rotary culture in a bioreactor. From Day 5, hEOs were cultured in OM supplemented with 1 μM SB431542 at hypoxic conditions (5% O2, 5% CO2 and without ROCKi). The hEOs were collected at different time points for further analysis. Medium containing human cord serum (HCS) (also known as ex-utero culture medium, EUCM) was used as described earlier^64. In brief, 25% human cord serum was mixed with 25% DMEM (Gibco 11880) (low glucose, no phenol red, no glutamine, no HEPES) and 50% rat serum. Glutamine and Penicillin-Streptomycin (50 units/ml penicillin) were added to the medium supplemented with 4 mg/ml glucose and HEPES (GIBCO 15630056, 11 mM) and 1 mM Sodium Pyruvate. Human cord serum was provided by the Cambridge Blood and Stem Cell Biobank, which is supported by the Cambridge NIHR Biomedical Research Centre, Wellcome Trust-MRC Stem Cell Institute, UK. Rat serum was heat-inactivated for 30 min at 56° C. and filtered through 0.22 μm PVDF filter, whereas human serum was heat inactivated at 55° C. for 45 minutes and sterilized through filtration by 0.22 μm filters. […]

[4] = test system: hEOs; assay: Frequency of hEOs with red inclusions (haematopoiesis)
Procedure: as §1, with “On day 5, hEOs were manually picked and transferred to bottles for rotary culture in a bioreactor. From Day 5, hEOs were cultured in OM supplemented with 1 μM SB431542 at hypoxic conditions (5% O2, 5% CO2 and without ROCKi).” left out

[5] = test system: niSTEMBRYOs; assay: niSTEMBRYO static and kinetic culture: growth and morphology; conditions: kinetic culture with SB
[6] = test system: niSTEMBRYOs; assay: Contracting cardiomyocytes in niSTEMBRYOs
[7] = test system: niSTEMBRYOs; assay: Red hemogenic zones in niSTEMBRYOs
[8] = test system: niSTEMBRYOs; assay: Lineage marker expression and hindgut formation in niSTEMBRYOs
[9] = test system: hPGCLCs; assay: hPGCLC specification in hEOs, NANOS3-tdTomato reporter
Procedure: (§2) Inventors used W15-NANOS3-tdTomato and RUES2-GLR hES cell lines in this study. All hES cells were cultured in Essential 8™ (E8) medium (Life Technologies, A1517001) on freshly prepared Vitronectin (Fisher Scientific, A31804) coated 6-well plates in humidified chambers at 37° C. and 5% CO2. hES cells were passaged every 3-4 days (once they reached ~70% confluency) using 0.5 mM EDTA (ThermoFisher Scientific, AM9260G) in homemade phosphate buffer saline (1×PBS). The transient state of cells was induced, as described previously, with slight modifications^19. In brief, hES cell colonies (70% confluent) were dissociated into single cells using 0.25% Trypsin-EDTA (Life Technologies, 25200072), seeded (600,000 cells/well) into freshly prepared Vitronectin-coated 6-well plates (~30 mins). The cells were cultured for 24 h in the presence of Advanced RPMI 1640 (Life Technologies, 61870-036) supplemented with B27 supplement (1%) (ThermoFisher Scientific, 17504044), 0.1 mM NEAA, 100 U/ml Penicillin, 0.1 mg/ml Streptomycin, 2 mM L-glutamine, Activin A (1 μg/ml) (In-house produced by Biochemistry Department, University of Cambridge), Chiron (3 μM) (CHIR99021, TOCRIS 4423/10) and Rho-associated, coiled-coil containing protein kinase (ROCK) inhibitor (Rocki: 10 μM); Y27632) (hereafter called induction medium, IM).
Transient cells induced in IM for 24 h were dissociated into single cells using 0.25% Trypsin-EDTA and seeded (400 cells/well) into Corning Clear Ultra-low attachment 96-well plates (Fisher Scientific 10023683). […]
hEOs cultured on ultra-low attachment 96-well plates were collected, washed in 1×PBS and fixed in 4% PFA for 3-4 hours at room temperature or 1% PFA overnight at 4° C. hEOs were embedded in OCT mounting medium (VWR-361603E) and incubated in dry ice for 30 min before sectioning the frozen samples. An antigen retrieval procedure was performed to remove the fluorescence reporter from W15-NANOS3-tdTomato hES cell line, where required. […]

[10] = test system: hEOs; assay: Self-organization of hES cells into 3D hEOs, static 96-well culture
Procedure: as §2, with “IM). […]” for “IM).”

SMILES: NC(=O)c1ccc(-c2nc(-c3ccc4c(c3)OCO4)c(-c3ccccn3)[nH]2)cc1 [SB43, SB431542]
- increase in the frequency of elongated hEOs ([1]; SB in the initial four-day static cultures, D4, p=0.0016): 15%
- hEO size ([2]; kinetic culture with 1 μM SB43, with or without 10% Matrigel, after four days): doubled in size
- hEO size relative to static culture on D4 ([2]; kinetic culture with SB, after 22 days): quadrupled in size
- hEOs with periodic and highly localised contractions ([3]; D7, kinetic culture with SB): ~ 10%
- hEOs with periodic and highly localised contractions ([3]; D8, kinetic culture with SB): ~70%
- decrease in the number of beating hEOs ([3]; SB in static and kinetic cultures vs SB only during kinetic cultures, D8, p<0.0001): 40%
- hEOs containing large internal red zones ([4]; SB in rotary cultures, by day 15): ~ 14%
- red inclusion phenotype ([4]; SB included in the 4D static culture): entirely lost
- aggregate size ([5]; after 14 days): quadrupling
- aggregate size ([5]; after four days): doubling in size
- niSTEMBRYOs with periodic and highly localised contractions ([6]; D8, kinetic culture with SB): ~ 72%
- appearance of contracting cardiomyocytes ([6]; SB from D1 (SB early) vs SB from D4 (SB late)): not affected
- niSTEMBRYOs with periodic and highly localised contractions ([6]; after 7 days, kinetic culture with SB): ~ 10%
- haematopoiesis in niSTEMBRYOs ([7]; SB43 from day 4 onwards (SB late)): promoted haematopoiesis
- red hemogenic phenotype ([7]; SB from D1 (SB early)): no red hemogenic phenotype was observed
- niSTEMBRYOs developing visible red hemogenic zones ([7]; SB in rotary cultures, from D14 onwards, N=196/1170, 5 experiments): ~ 16%
- hindgut (SOX17, SOX2 tubular structure) ([8]; SB from D1 (SB early)): appearance of hindgut
- expression of mesodermal marker TBXT ([8]; SB from D1 (SB early), by D4): downregulated
- hindgut ([8]; SB from D4 (SB late)): absent

SMILES: c1ccc2c(-c3cnn4cc(-c5ccc(N6CCNCC6)cc5)cnc34)ccnc2c1 [LDN193189]
- effect of BMP inhibition on specification of hPGCLCs ([9]; inhibitor present on D1, D2 or D3): affected the specification of hPGCLCs when present on D1 but not on D2 or D3

SMILES: Cc1c[nH]c(-c2cnc(NCCNc3ccc(C#N)cn3)nc2-c2ccc(Cl)cc2Cl)n1 [CH, CHIR99021]
- aggregates elongated along the longitudinal axis ([10]; 0.25 μM CH, after two days, 1620/1800, N=10 experiments): more than 90%
- self-organization of aggregates into 3D elongated structures ([10]; CH 0.25 μM, 0.5 μM and 1.0 μM): sufficient to promote self-organization into 3D elongated structures
- elongation of hEOs and hPGCLC specification (NANOS3-tdTomato reporter) ([9]; CH 0.25 μM, from D2 until D8, without exogenous BMP2/4): both the elongation of hEOs and the specification of hPGCLCs
- detection of hPGCLCs ([9]; high concentration of CH (1.0 μM), D3 hEOs): No hPGCLCs were detected
- elongation of the aggregates ([1]; four days in the presence of CH, by day 4, 1845/3100, N=4 experiments): ~ 60%
- periodic contractions ([6]; niSTEMBRYOs cultured with HCS or with CH alone): not evident
- appearance of red hemogenic zones ([7]; aggregates cultured in the presence of CH or HCS alone): did not appear

— patent publication US20260250629A1, “STEM CELLS BASED THREE-DIMENSIONAL EMBRYO MODEL” (CAMBRIDGE ENTERPRISE LIMITED, priority 2023, published 2026)
